Data as given in ChEMBL document CHEMBL1201861, “Genomics of Drug Sensitity in Cancer screening data, Wellcome Trust Sanger Institute”.
pIC50: −log10 of the molar value.

What was measured:
[1] = test system: COLO-792; assay: cells; assay type: functional, cell-based; conditions: Homo sapiens
Description: SANGER: Inhibition of human COLO-792 cell growth in a cell viability assay.

[2] = test system: COR-L279; assay: SANGER: Inhibition of human COR-L279 cell growth in a cell viability assay.; assay type: functional, cell-based
[3] = test system: Capan-2; assay: cells; assay type: functional, cell-based; conditions: Homo sapiens;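 further: Capan-2 cell growth inhibition, read out with a viability assay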
Description: SANGER: Inhibition of human Capan-2 cell growth in a cell viability assay.

[4] = test system: EVSA-T; assay: cells; assay type: functional, cell-based; conditions: Homo sapiens;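 further: growth inhibition of EVSA-T cells, read out with a cell viability assay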
Description: SANGER: Inhibition of human EVSA-T cell growth in a cell viability assay.

[5] = test system: HCT-15; assay: cells; assay type: functional, cell-based; conditions: Homo sapiens;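 further: cell viability readout, IC50 reflecting suppression of HCT-15 cell growth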
Description: SANGER: Inhibition of human HCT-15 cell growth in a cell viability assay.

[6] = test system: HT-1080; assay: cells; assay type: functional, cell-based; conditions: Homo sapiens
Description: SANGER: Inhibition of human HT-1080 cell growth in a cell viability assay.

[7] = test system: HT-3; assay: cells; assay type: functional, cell-based; conditions: Homo sapiens;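 further: growth inhibition measured with a cell viability readout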
Description: SANGER: Inhibition of human HT-3 cell growth in a cell viability assay.

[8] = test system: HT55; assay: cells; assay type: functional, cell-based; conditions: Homo sapiens;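 further: cell viability readout measuring growth inhibition of human HT55 cells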
Description: SANGER: Inhibition of human HT55 cell growth in a cell viability assay.

[9] = test system: Huh-7; assay: cells; assay type: functional, cell-based; conditions: Homo sapiens;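 further: HuH-7 cell growth inhibition, read out with a cell viability assay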
Description: SANGER: Inhibition of human HuH-7 cell growth in a cell viability assay.

[10] = test system: JEG-3; assay: cells; assay type: functional, cell-based; conditions: Homo sapiens;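 further: growth inhibition of human JEG-3 cells, read out with a cell viability assay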
Description: SANGER: Inhibition of human JEG-3 cell growth in a cell viability assay.

[11] = test system: KOSC-2; assay: cells; assay type: functional, cell-based; conditions: Homo sapiens;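 further: growth inhibition of KOSC-2 cells, read out by a cell viability assay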
Description: SANGER: Inhibition of human KOSC-2 cell growth in a cell viability assay.

[12] = test system: KP-4; assay: cells; assay type: functional, cell-based; conditions: Homo sapiens;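 further: human KP-4 cells, with growth inhibition read out through a cell viability assay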
Description: SANGER: Inhibition of human KP-4 cell growth in a cell viability assay.

[13] = test system: KYSE-140; assay: cells; assay type: functional, cell-based; conditions: Homo sapiens;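 further: cell viability assay measuring growth inhibition in human KYSE-140 cells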
Description: SANGER: Inhibition of human KYSE-140 cell growth in a cell viability assay.

[14] = test system: KYSE-180; assay: cells; assay type: functional, cell-based; conditions: Homo sapiens;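 further: growth inhibition of KYSE-180 cells, read out with a cell viability assay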
Description: SANGER: Inhibition of human KYSE-180 cell growth in a cell viability assay.

[15] = test system: KYSE-270; assay: cells; assay type: functional, cell-based; conditions: Homo sapiens;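 further: cell growth inhibition measured with a viability assay in the human KYSE-270 line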
Description: SANGER: Inhibition of human KYSE-270 cell growth in a cell viability assay.

[16] = test system: KYSE-450; assay: cells; assay type: functional, cell-based; conditions: Homo sapiens;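 further: cell growth inhibition measured by a viability assay in human KYSE-450 cells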
Description: SANGER: Inhibition of human KYSE-450 cell growth in a cell viability assay.

[17] = test system: LU-165; assay: cells; assay type: functional, cell-based; conditions: Homo sapiens
Description: SANGER: Inhibition of human LU-165 cell growth in a cell viability assay.

[18] = test system: ME-180; assay: cells; assay type: functional, cell-based; conditions: Homo sapiens;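 further: cell viability assay measuring growth inhibition of ME-180 cells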
Description: SANGER: Inhibition of human ME-180 cell growth in a cell viability assay.

[19] = test system: MFE-280; assay: cells; assay type: functional, cell-based; conditions: Homo sapiens;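 further: growth inhibition of MFE-280 cells, determined with a cell viability readout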
Description: SANGER: Inhibition of human MFE-280 cell growth in a cell viability assay.

[20] = test system: MG-63; assay: cells; assay type: functional, cell-based; conditions: Homo sapiens;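 further: growth inhibition of human MG-63 cells, read out with a cell viability assay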
Description: SANGER: Inhibition of human MG-63 cell growth in a cell viability assay.

[21] = test system: MKN-1; assay: cells; assay type: functional, cell-based; conditions: Homo sapiens;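 further: growth inhibition of human MKN1 cells, read out by a cell viability measurement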
Description: SANGER: Inhibition of human MKN1 cell growth in a cell viability assay.

[22] = test system: MKN-28; assay: cells; assay type: functional, cell-based; conditions: Homo sapiens;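 further: cell viability assay read-out, IC50 reflects suppression of growth of human MKN-28 cells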
Description: SANGER: Inhibition of human MKN28 cell growth in a cell viability assay.

[23] = test system: MKN-45; assay: cells; assay type: functional, cell-based; conditions: Homo sapiens;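 further: growth inhibition of human MKN-45 cells, measured with a cell viability assay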
Description: SANGER: Inhibition of human MKN45 cell growth in a cell viability assay.

[24] = test system: MONO-MAC-6; assay: cells; assay type: functional, cell-based; conditions: Homo sapiens;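 further: cell viability assay measuring growth inhibition of human MONO-MAC-6 cells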
Description: SANGER: Inhibition of human MONO-MAC-6 cell growth in a cell viability assay.

[25] = test system: NB1; assay: cells; assay type: functional, cell-based; conditions: Homo sapiens;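 further: reduction of NB1 cell proliferation, read out with a viability assay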
Description: SANGER: Inhibition of human NB1 cell growth in a cell viability assay.

[26] = test system: NCI-H1563; assay: cells; assay type: functional, cell-based; conditions: Homo sapiens;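 further: growth inhibition of human NCI-H1563 cells, read out with a cell viability assay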
Description: SANGER: Inhibition of human NCI-H1563 cell growth in a cell viability assay.

[27] = test system: NCI-H1755; assay: cells; assay type: functional, cell-based; conditions: Homo sapiens;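 further: cell viability readout used to measure growth inhibition of NCI-H1755 cells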
Description: SANGER: Inhibition of human NCI-H1755 cell growth in a cell viability assay.

[28] = test system: NCI-H1993; assay: cells; assay type: functional, cell-based; conditions: Homo sapiens;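 further: growth inhibition of the cancer cell line, assessed with a cell viability assay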
Description: SANGER: Inhibition of human NCI-H1993 cell growth in a cell viability assay.

[29] = test system: NCI-H2009; assay: cells; assay type: functional, cell-based; conditions: Homo sapiens;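 further: cell viability assay measuring inhibition of NCI-H2009 cell growth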
Description: SANGER: Inhibition of human NCI-H2009 cell growth in a cell viability assay.

[30] = test system: NCI-H2170; assay: cells; assay type: functional, cell-based; conditions: Homo sapiens;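 further: cell viability assay measuring growth inhibition of human NCI-H2170 cancer cells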
Description: SANGER: Inhibition of human NCI-H2170 cell growth in a cell viability assay.

[31] = test system: NCI-H2196; assay: cells; assay type: functional, cell-based; conditions: Homo sapiens;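 further: cell viability assay used as the readout of growth inhibition in NCI-H2196 cells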
Description: SANGER: Inhibition of human NCI-H2196 cell growth in a cell viability assay.

[32] = test system: NCI-H2342; assay: cells; assay type: functional, cell-based; conditions: Homo sapiens;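 further: growth inhibition of the cancer cell line, determined with a cell viability assay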
Description: SANGER: Inhibition of human NCI-H2342 cell growth in a cell viability assay.

[33] = test system: NCI-H358; assay: cells; assay type: functional, cell-based; conditions: Homo sapiens;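 further: growth inhibition of NCI-H358 human cells, read out with a cell viability assay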
Description: SANGER: Inhibition of human NCI-H358 cell growth in a cell viability assay.

[34] = test system: NCI-H522; assay: cells; assay type: functional, cell-based; conditions: Homo sapiens;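 further: cell viability assay measuring growth inhibition of human NCI-H522 cells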
Description: SANGER: Inhibition of human NCI-H522 cell growth in a cell viability assay.

[35] = test system: NCI-H596; assay: cells; assay type: functional, cell-based; conditions: Homo sapiens;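 further: growth inhibition of NCI-H596 cells, read out with a cell viability assay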
Description: SANGER: Inhibition of human NCI-H596 cell growth in a cell viability assay.

[36] = test system: NCI-H64; assay: cells; assay type: functional, cell-based; conditions: Homo sapiens;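 further: growth inhibition of NCI-H64 cells, read out with a cell viability assay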
Description: SANGER: Inhibition of human NCI-H64 cell growth in a cell viability assay.

[37] = test system: OAW-28; assay: cells; assay type: functional, cell-based; conditions: Homo sapiens;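 further: growth inhibition of OAW-28 cells, read out with a cell viability assay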
Description: SANGER: Inhibition of human OAW-28 cell growth in a cell viability assay.

[38] = test system: OVCAR-3; assay: cells; assay type: functional, cell-based; conditions: Homo sapiens;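 further: growth inhibition of human OVCAR-3 cells, determined by a cell viability assay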
Description: SANGER: Inhibition of human OVCAR-3 cell growth in a cell viability assay.

[39] = test system: OVCAR-8; assay: cells; assay type: functional, cell-based; conditions: Homo sapiens;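 further: growth inhibition of human OVCAR-8 cells, read out by a cell viability assay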
Description: SANGER: Inhibition of human OVCAR-8 cell growth in a cell viability assay.

[40] = test system: P12-Ichikawa; assay: cells; assay type: functional, cell-based; conditions: Homo sapiens
[41] = test system: RT-112; assay: cells; assay type: functional, cell-based; conditions: Homo sapiens
Description: SANGER: Inhibition of human RT-112 cell growth in a cell viability assay.

[42] = test system: SCC-3; assay: cells; assay type: functional, cell-based; conditions: Homo sapiens;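 further: cell viability assay measuring inhibition of SCC-3 cell growth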
Description: SANGER: Inhibition of human SCC-3 cell growth in a cell viability assay.

[43] = test system: SIG-M5; assay: cells; assay type: functional, cell-based; conditions: Homo sapiens;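 further: cell viability assay read-out, measuring how strongly growth of cultured human SIG-M5 cells is inhibited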
Description: SANGER: Inhibition of human SIG-M5 cell growth in a cell viability assay.

[44] = test system: SIMA; assay: cells; assay type: functional, cell-based; conditions: Homo sapiens;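 further: growth inhibition of SIMA cells, measured with a cell viability readout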
Description: SANGER: Inhibition of human SIMA cell growth in a cell viability assay.

[45] = test system: SK-HEP1; assay: cells; assay type: functional, cell-based, SK-HEP-1; conditions: Homo sapiens;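 further: cell viability readout used to quantify reduction in proliferation of human SK-HEP-1 cells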
Description: SANGER: Inhibition of human SK-HEP-1 cell growth in a cell viability assay.

[46] = test system: SK-LU-1; assay: cells; assay type: functional, cell-based; conditions: Homo sapiens;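 further: cell viability assay measuring growth inhibition of human SK-LU-1 cells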
Description: SANGER: Inhibition of human SK-LU-1 cell growth in a cell viability assay.

[47] = test system: SNU-387; assay: cells; assay type: functional, cell-based; conditions: Homo sapiens
Description: SANGER: Inhibition of human SNU-387 cell growth in a cell viability assay.

[48] = test system: SU-DHL-1; assay: SANGER: Inhibition of human SU-DHL-1 cell growth in a cell viability assay.; assay type: functional, cell-based
[49] = test system: SW1088; assay: cells; assay type: functional, cell-based; conditions: Homo sapiens;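 further: growth inhibition of human SW1088 cells, read out by a cell viability assay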
Description: SANGER: Inhibition of human SW1088 cell growth in a cell viability assay.

[50] = test system: SW1417; assay: cells; assay type: functional, cell-based; conditions: Homo sapiens;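 further: growth inhibition of human SW1417 cells, read out with a cell viability assay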
Description: SANGER: Inhibition of human SW1417 cell growth in a cell viability assay.

[51] = test system: SW1783; assay: cells; assay type: functional, cell-based; conditions: Homo sapiens
Description: SANGER: Inhibition of human SW1783 cell growth in a cell viability assay.

[52] = test system: SAOS-2; assay: cells; assay type: functional, cell-based; conditions: Homo sapiens;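 further: growth inhibition of human Saos-2 cells determined by a cell viability assay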
Description: SANGER: Inhibition of human Saos-2 cell growth in a cell viability assay.

[53] = test system: T98G; assay: cells; assay type: functional, cell-based; conditions: Homo sapiens;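 further: growth inhibition of T98G cells, read out by a cell viability assay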
Description: SANGER: Inhibition of human T98G cell growth in a cell viability assay.

[54] = test system: TCC-SUP; assay: cells; assay type: functional, cell-based; conditions: Homo sapiens;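 further: growth inhibition of TCC-SUP cells, read out with a cell viability assay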
Description: SANGER: Inhibition of human TCCSUP cell growth in a cell viability assay.

[55] = test system: 647-V; assay: cells; assay type: functional, cell-based; conditions: Homo sapiens;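 further: growth inhibition of 647-V cells, read out with a cell viability assay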
Description: SANGER: Inhibition of human 647-V cell growth in a cell viability assay.

[56] = test system: A673; assay: cells; assay type: functional, cell-based; conditions: Homo sapiens;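 further: growth inhibition of human A673 cells, read out through a cell viability assay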
Description: SANGER: Inhibition of human A673 cell growth in a cell viability assay.

[57] = test system: AU565; assay: cells; assay type: functional, cell-based; conditions: Homo sapiens
Description: SANGER: Inhibition of human AU565 cell growth in a cell viability assay.

[58] = test system: BFTC-909; assay: cells; assay type: functional, cell-based; conditions: Homo sapiens
Description: SANGER: Inhibition of human BFTC-909 cell growth in a cell viability assay.

[59] = test system: CAL-62; assay: cells; assay type: functional, cell-based; conditions: Homo sapiens
Description: SANGER: Inhibition of human CAL-62 cell growth in a cell viability assay.

[60] = test system: TE-441-T; assay: cells; assay type: functional, cell-based; conditions: Homo sapiens
Description: SANGER: Inhibition of human TE-441-T cell growth in a cell viability assay.

[61] = test system: TUR; assay: cells; assay type: functional, cell-based; conditions: Homo sapiens
Description: SANGER: Inhibition of human TUR cell growth in a cell viability assay.

[62] = test system: UMUC3; assay: cells; assay type: functional, cell-based; conditions: Homo sapiens
Description: SANGER: Inhibition of human UM-UC-3 cell growth in a cell viability assay.

[63] = test system: YKG-1; assay: cells; assay type: functional, cell-based; conditions: Homo sapiens
Description: SANGER: Inhibition of human YKG-1 cell growth in a cell viability assay.

[64] = test system: CHL-1; assay: cells; assay type: functional, cell-based; conditions: Homo sapiens
Description: SANGER: Inhibition of human CHL-1 cell growth in a cell viability assay.

For `O=c1[nH]c2ccccc2n1C1CCN(Cc2ccc(-c3nc4cc5[nH]cnc5cc4nc3-c3ccccc3)cc2)CC1`, the pIC50 [1] was less than 5.59, the pIC50 [2] was 5.77 and the pIC50 [3] was less than 5.59. It also gave a pIC50 [4] of less than 5.59, a pIC50 [5] of less than 5.59 and a pIC50 [6] of less than 5.59. For the same compound, the pIC50 [7] was less than 5.59, the pIC50 [8] was less than 5.59 and the pIC50 [9] was less than 5.59. It also gave a pIC50 [10] of less than 5.59, a pIC50 [11] of less than 5.59 and a pIC50 [12] of less than 5.59. For the same compound, the pIC50 [13] was less than 5.59, the pIC50 [14] was less than 5.59 and the pIC50 [15] was less than 5.59. The pIC50 [16] was less than 5.59, the pIC50 [17] was less than 5.59 and the pIC50 [18] was less than 5.59. For the same compound, the pIC50 [19] was less than 5.59, the pIC50 [20] was less than 5.59 and the pIC50 [21] was less than 5.59. For the same compound, the pIC50 [22] was less than 5.59, the pIC50 [23] was less than 5.59 and the pIC50 [24] was less than 5.59. It also gave a pIC50 [25] of less than 5.59, a pIC50 [26] of 6.27 and a pIC50 [27] of 5.98. It also gave a pIC50 [28] of less than 5.59, a pIC50 [29] of less than 5.59 and a pIC50 [30] of less than 5.59. For the same compound, the pIC50 [31] was less than 5.59, the pIC50 [32] was 6.03 and the pIC50 [33] was less than 5.59. For the same compound, the pIC50 [34] was less than 5.59, the pIC50 [35] was less than 5.59 and the pIC50 [36] was less than 5.59. It also gave a pIC50 [37] of less than 5.59, a pIC50 [38] of 5.73 and a pIC50 [39] of less than 5.59. For the same compound, the pIC50 [40] was less than 5.59, the pIC50 [41] was less than 5.59 and the pIC50 [42] was less than 5.59. It also gave a pIC50 [43] of less than 5.59, a pIC50 [44] of less than 5.59 and a pIC50 [45] of less than 5.59. For the same compound, the pIC50 [46] was less than 5.59, the pIC50 [47] was less than 5.59 and the pIC50 [48] was less than 5.59. The pIC50 [49] was less than 5.59, the pIC50 [50] was less than 5.59 and the pIC50 [51] was less than 5.59. It also gave a pIC50 [52] of less than 5.59, a pIC50 [53] of less than 5.59 and a pIC50 [54] of less than 5.59. The pIC50 [55] was less than 5.59, the pIC50 [56] was less than 5.59 and the pIC50 [57] was 5.91. For the same compound, the pIC50 [58] was less than 5.59, the pIC50 [59] was less than 5.59 and the pIC50 [60] was less than 5.59. It also gave a pIC50 [61] of less than 5.59, a pIC50 [62] of less than 5.59 and a pIC50 [63] of 5.99. For the same compound, the pIC50 [64] was less than 5.59.
`Fc1cc(-c2cc[nH]/c(=N/c3ccc(-n4cnc(N5CCOCC5)n4)cc3)n2)cc(N2CCOCC2)c1` showed a pIC50 [1] of less than 5.29, a pIC50 [2] of 5.95 and a pIC50 [3] of 5.99. For the same compound, the pIC50 [4] was 5.90, the pIC50 [5] was 6.59 and the pIC50 [6] was 6.37. It also gave a pIC50 [7] of 6.99, a pIC50 [8] of less than 5.29 and a pIC50 [9] of 6.12. For the same compound, the pIC50 [10] was 6.15, the pIC50 [11] was 6.27 and the pIC50 [12] was 6.24. It also gave a pIC50 [13] of 5.98, a pIC50 [14] of 6.57 and a pIC50 [15] of 6.65. For the same compound, the pIC50 [16] was 6.48, the pIC50 [17] was 6.08 and the pIC50 [18] was 5.85. It also gave a pIC50 [19] of less than 5.29, a pIC50 [20] of 6.17 and a pIC50 [21] of 6.26. It also gave a pIC50 [22] of 6.52, a pIC50 [23] of 6.00 and a pIC50 [24] of 6.26. It also gave a pIC50 [25] of 6.35, a pIC50 [26] of 6.49 and a pIC50 [27] of 6.46. For the same compound, the pIC50 [28] was 5.64, the pIC50 [29] was 6.29 and the pIC50 [30] was 6.13. For the same compound, the pIC50 [31] was 6.10, the pIC50 [32] was 6.44 and the pIC50 [33] was 6.42. It also gave a pIC50 [34] of 6.05, a pIC50 [35] of 6.09 and a pIC50 [36] of 6.06. It also gave a pIC50 [37] of 5.84, a pIC50 [38] of 6.25 and a pIC50 [39] of 6.39. The pIC50 [40] was 5.42, the pIC50 [41] was 6.47 and the pIC50 [42] was 6.24. The pIC50 [43] was 6.91, the pIC50 [44] was 6.11 and the pIC50 [45] was 6.39. It also gave a pIC50 [46] of 6.01, a pIC50 [47] of 6.38 and a pIC50 [48] of 6.46. The pIC50 [49] was less than 5.29, the pIC50 [50] was 6.05 and the pIC50 [51] was 6.37. It also gave a pIC50 [52] of 5.75, a pIC50 [53] of 6.25 and a pIC50 [54] of less than 5.29. For the same compound, the pIC50 [55] was 6.40, the pIC50 [56] was 5.95 and the pIC50 [57] was 6.54. For the same compound, the pIC50 [58] was 6.08, the pIC50 [59] was 6.05 and the pIC50 [60] was 6.50. The pIC50 [61] was 6.44, the pIC50 [62] was 5.90 and the pIC50 [63] was 6.14. For the same compound, the pIC50 [64] was 6.31.
